Results as given in PubChem BioAssay (NCI).
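Cells were grown in 96-well plates and exposed to each compound for 48 hours at five concentrations; endpoints were interpolated linearly between bracketing concentrations, or set to the highest concentration if not reached. GI50 marks 50% less growth. The concentration for full growth arrest is given as TGI.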

How the values were obtained:
Assay in all cases: growth of human tumour cells (NCI), 48 h
UO-31 renal = system: UO-31 renal
T-47D breast = system: T-47D breast
SK-MEL-28 melanoma = system: SK-MEL-28 melanoma
SNB-75 CNS = system: SNB-75 CNS
SK-MEL-2 melanoma = system: SK-MEL-2 melanoma
HCT-116 colon = system: HCT-116 colon
HOP-62 NSCLC = system: HOP-62 NSCLC
MALME-3M melanoma = system: MALME-3M melanoma
SK-OV-3 ovarian = system: SK-OV-3 ovarian
SR leukemia = system: SR leukemia
EKVX NSCLC = system: EKVX NSCLC
PC-3 prostate = system: PC-3 prostate
NCI-H460 lung = system: NCI-H460 lung
HCC-2998 colon = system: HCC-2998 colon
SF-295 CNS = system: SF-295 CNS
COLO 205 colon = system: COLO 205 colon
RPMI-8226 leukemia = system: RPMI-8226 leukemia
MDA-MB-435 = system: MDA-MB-435
HT29 colon = system: HT29 colon
K-562 leukemia = system: K-562 leukemia
OVCAR-8 ovarian = system: OVCAR-8 ovarian
U251 CNS = system: U251 CNS
NCI-H23 lung = system: NCI-H23 lung
A549 NSCLC = system: A549 NSCLC
RXF 393 renal = system: RXF 393 renal
TK-10 renal = system: TK-10 renal
SW-620 colon = system: SW-620 colon
BT-549 breast = system: BT-549 breast
SN12C renal = system: SN12C renal
OVCAR-3 ovarian = system: OVCAR-3 ovarian
SK-MEL-5 melanoma = system: SK-MEL-5 melanoma
NCI-H226 lung = system: NCI-H226 lung
DU-145 prostate = system: DU-145 prostate
IGROV1 ovarian = system: IGROV1 ovarian
OVCAR-5 ovarian = system: OVCAR-5 ovarian
HS 578T breast = system: HS 578T breast
SF-539 CNS = system: SF-539 CNS
CAKI-1 renal = system: CAKI-1 renal
KM12 colon = system: KM12 colon
OVCAR-4 ovarian = system: OVCAR-4 ovarian
NCI-H522 lung = system: NCI-H522 lung
NCI/ADR-RES ovarian = system: NCI/ADR-RES ovarian
MCF7 breast = system: MCF7 breast
MOLT-4 leukemia = system: MOLT-4 leukemia
SF-268 CNS = system: SF-268 CNS
HL-60(TB) leukemia = system: HL-60(TB) leukemia
ACHN renal = system: ACHN renal
MDA-MB-231 breast = system: MDA-MB-231 breast
LOX IMVI melanoma = system: LOX IMVI melanoma
A498 renal = system: A498 renal
786-0 renal = system: 786-0 renal
M14 melanoma = system: M14 melanoma
HOP-92 NSCLC = system: HOP-92 NSCLC
SNB-19 CNS = system: SNB-19 CNS
CCRF-CEM leukemia = system: CCRF-CEM leukemia
UACC-62 melanoma = system: UACC-62 melanoma
HCT-15 colon = system: HCT-15 colon
UACC-257 melanoma = system: UACC-257 melanoma

SMILES: COc1cccc(/C=C2\COc3ccc(O)c(O)c3C2=O)c1
- GI50 (UO-31 renal): 853 nM
- TGI (UO-31 renal): 2090 nM
- GI50 (T-47D breast): 1580 nM
- TGI (T-47D breast): 4380 nM
- GI50 (SK-MEL-28 melanoma): 1780 nM
- TGI (SK-MEL-28 melanoma): 4130 nM
- GI50 (SNB-75 CNS): 1420 nM
- TGI (SNB-75 CNS): 10300 nM
- GI50 (SK-MEL-2 melanoma): 2160 nM
- TGI (SK-MEL-2 melanoma): 5150 nM
- GI50 (HCT-116 colon): 1250 nM
- TGI (HCT-116 colon): 2900 nM
- GI50 (HOP-62 NSCLC): 2800 nM
- TGI (HOP-62 NSCLC): 10400 nM
- GI50 (MALME-3M melanoma): 1450 nM
- TGI (MALME-3M melanoma): 3710 nM
- GI50 (SK-OV-3 ovarian): 3380 nM
- TGI (SK-OV-3 ovarian): 12700 nM
- GI50 (SR leukemia): 359 nM
- TGI (SR leukemia): 6970 nM
- GI50 (EKVX NSCLC): 1820 nM
- TGI (EKVX NSCLC): 3950 nM
- GI50 (PC-3 prostate): 770 nM
- TGI (PC-3 prostate): 6040 nM
- GI50 (NCI-H460 lung): 2440 nM
- TGI (NCI-H460 lung): 8190 nM
- GI50 (HCC-2998 colon): 1600 nM
- TGI (HCC-2998 colon): 3030 nM
- GI50 (SF-295 CNS): 3200 nM
- TGI (SF-295 CNS): 10200 nM
- GI50 (COLO 205 colon): 1960 nM
- TGI (COLO 205 colon): 3870 nM
- GI50 (RPMI-8226 leukemia): 223 nM
- TGI (RPMI-8226 leukemia): 626 nM
- GI50 (MDA-MB-435): 1460 nM
- TGI (MDA-MB-435): 4120 nM
- GI50 (HT29 colon): 2260 nM
- TGI (HT29 colon): 5070 nM
- GI50 (K-562 leukemia): 396 nM
- TGI (K-562 leukemia): > 100000 nM
- GI50 (OVCAR-8 ovarian): 1790 nM
- TGI (OVCAR-8 ovarian): 13200 nM
- GI50 (U251 CNS): 1150 nM
- TGI (U251 CNS): 2490 nM
- GI50 (NCI-H23 lung): 1580 nM
- TGI (NCI-H23 lung): 3340 nM
- GI50 (A549 NSCLC): 2410 nM
- TGI (A549 NSCLC): 10300 nM
- GI50 (RXF 393 renal): 1190 nM
- TGI (RXF 393 renal): 2480 nM
- GI50 (TK-10 renal): 1740 nM
- TGI (TK-10 renal): 3490 nM
- GI50 (SW-620 colon): 1160 nM
- TGI (SW-620 colon): 3850 nM
- GI50 (BT-549 breast): 1970 nM
- TGI (BT-549 breast): 5080 nM
- GI50 (SN12C renal): 1090 nM
- TGI (SN12C renal): 3620 nM
- GI50 (OVCAR-3 ovarian): 629 nM
- TGI (OVCAR-3 ovarian): 1930 nM
- GI50 (SK-MEL-5 melanoma): 1440 nM
- TGI (SK-MEL-5 melanoma): 2760 nM
- GI50 (NCI-H226 lung): 2030 nM
- TGI (NCI-H226 lung): 5380 nM
- GI50 (DU-145 prostate): 1680 nM
- TGI (DU-145 prostate): 4160 nM
- GI50 (IGROV1 ovarian): 781 nM
- TGI (IGROV1 ovarian): 3630 nM
- GI50 (OVCAR-5 ovarian): 2180 nM
- TGI (OVCAR-5 ovarian): 4690 nM
- GI50 (HS 578T breast): 2900 nM
- TGI (HS 578T breast): 21800 nM
- GI50 (SF-539 CNS): 1180 nM
- TGI (SF-539 CNS): 3060 nM
- GI50 (CAKI-1 renal): 1280 nM
- TGI (CAKI-1 renal): 2710 nM
- GI50 (KM12 colon): 1440 nM
- TGI (KM12 colon): 3250 nM
- GI50 (OVCAR-4 ovarian): 2180 nM
- TGI (OVCAR-4 ovarian): 9470 nM
- GI50 (NCI-H522 lung): 193 nM
- TGI (NCI-H522 lung): 448 nM
- GI50 (NCI/ADR-RES ovarian): 1640 nM
- TGI (NCI/ADR-RES ovarian): 5950 nM
- GI50 (MCF7 breast): 438 nM
- TGI (MCF7 breast): 3120 nM
- GI50 (MOLT-4 leukemia): 1640 nM
- TGI (MOLT-4 leukemia): 17700 nM
- GI50 (SF-268 CNS): 1820 nM
- TGI (SF-268 CNS): 5170 nM
- GI50 (HL-60(TB) leukemia): 405 nM
- TGI (HL-60(TB) leukemia): 3200 nM
- GI50 (ACHN renal): 1250 nM
- TGI (ACHN renal): 2610 nM
- GI50 (MDA-MB-231 breast): 1690 nM
- TGI (MDA-MB-231 breast): 6500 nM
- GI50 (LOX IMVI melanoma): 740 nM
- TGI (LOX IMVI melanoma): 2060 nM
- GI50 (A498 renal): 1710 nM
- TGI (A498 renal): 4000 nM
- GI50 (786-0 renal): 1470 nM
- TGI (786-0 renal): 3860 nM
- GI50 (M14 melanoma): 1880 nM
- TGI (M14 melanoma): 4760 nM
- GI50 (HOP-92 NSCLC): 2110 nM
- TGI (HOP-92 NSCLC): 8010 nM
- GI50 (SNB-19 CNS): 1840 nM
- TGI (SNB-19 CNS): 5070 nM
- GI50 (CCRF-CEM leukemia): 263 nM
- TGI (CCRF-CEM leukemia): 1110 nM
- GI50 (UACC-62 melanoma): 1530 nM
- TGI (UACC-62 melanoma): 3220 nM
- GI50 (HCT-15 colon): 469 nM
- TGI (HCT-15 colon): 4910 nM
- GI50 (UACC-257 melanoma): 1730 nM
- TGI (UACC-257 melanoma): 4770 nM
